In patent US20200308616A1, “PROCESS FOR PRODUCING HIGH PURITY STEVIOL GLYCOSIDES” (PureCircle Sdn Bhd, priority 2015, published 2020):
Like-named read-outs stand apart in the source and are kept apart here.

Experiments:
[1] = system: gut microbiome; conditions: cited from earlier work
[2] = system: microbial strains; assay: Indirect assay: growth with RebA as the only carbon source and RebA degradation by the soluble fraction of the cell extract; assay type: cell-based; conditions: defined mineral medium, 10 g/L RebA as only carbon source, 28° C., 72 h; 19 microbial strains
Description: Microbial strains were assayed for their ability to assimilate RebA from the culture medium by growing the strains in a defined mineral medium with RebA as the only carbon source.
This medium contained (per liter): 10 g RebA, 5 g (NH4)2SO4, 3 g KH2PO4, 0.5 g MgSO4×7H2O, 15 mg EDTA, 4.5 mg ZnSO4×7H2O, 0.3 mg CoCl2×6H2O, 1 mg MnCl2×4H2O, 0.3 mg CuSO4×5H2O, 4.5 mg CaCl2×2H2O, 3 mg FeSO4×7H2O, 0.4 mg NaMoO4×2H2O, 1 mg H3BO3, 0.1 mg KI, 0.05 mg biotin, 1 mg calcium pantothenate, 25 mg inositol, 1 mg thiamine HCl, 1 mg pyridoxine HCl, 0.2 mg para-aminobenzoic acid. A volume of 1 mL culture medium was inoculated with 10 μl of an overnight culture grown.
All cultivations were performed in 96 square well plates on a laboratory shaker with 300 rpm and 5.1 cm shaking diameter at 28° C. for 72 h. Growth was monitored by mixing 50 μL or culture volume with 50 μL ethanol in a 96 well plate and subsequently measuring the optical density at 600 nm (OD600) in a spectrophotometer (Molecular Devices). […]
Then, 70 μL of a 2 g/L RebA solution was added to the soluble fraction before incubation at 72 h at 28° C. RebA was detected by LC-MS set to single ion monitoring (SIM) mode, negative mode, m/z=965.60.
The difference in RebA concentration between the start and the end of the incubation was calculated for each soluble fraction. […]

[3] = system: Kluyveromyces marxianus strain; assay: Direct assay: quantification of intracellular RebA by LC-MS; assay type: cell-based
Description: The selected microbial strain was cultivated in a defined mineral medium with RebA as the only carbon source. This medium contained (per liter): 9 g RebA, 5 g (NH4)2SO4, 3 g KH2PO4, 0.5 g MgSO4×7H2O, 15 mg EDTA, 4.5 mg ZnSO4×7H2O, 0.3 mg CoCl2×6H2O, 1 mg MnCl2×4H2O, 0.3 mg CuSO4×5H2O, 4.5 mg CaCl2×2H2O, 3 mg FeSO4×7H2O, 0.4 mg NaMoO4×2H2O, 1 mg H3BO3, 0.1 mg KI, 0.05 mg biotin, 1 mg calcium pantothenate, 25 mg inositol, 1 mg thiamine HCl, 1 mg pyridoxine HCl, 0.2 mg para-aminobenzoic acid. A volume of 20 mL culture medium was inoculated with a single colony. All cultivations were performed in 25 mL culture medium in a 300 mL non-baffled shake flask on a laboratory shaker with 250 rpm and 2.5 cm shaking diameter at 28° C. for 72 h. The complete culture was transferred to a beaker containing 125 mL of a solution containing 45 ppm 4-Nitrophenyl β-D-glucopyranoside in 60% methanol in water that was pre-cooled to −40° C. The mixture was then transferred to three 50 mL centrifugation tubes that were pre-cooled on dry ice and centrifuged below 0° C. at 4248 g for 10 min. Subsequently, an aliquot of the supernatant (quench) was stored at −80° C. and the rest of the supernatant was discarded, while the pellet was kept on dry ice. Then 5 mL 60% methanol in water pre-cooled on dry ice was used to re-suspend the 3 pellets. The re-suspended pellets were transferred to a single 15 mL centrifugation tube precooled on dry ice and centrifuged below 0° C. at 4248 g for 10 min. Then the supernatant was discarded and the pellet was re-suspended in fresh 5 mL 60% methanol in water pre-cooled on dry ice and the suspension was centrifuged below 0° C. at 4248 g for 10 min. Then the supernatant was discarded and the pellet was re-suspended again in fresh 5 mL 60% methanol in water pre-cooled on dry ice and the suspension was centrifuged below 0° C. at 4248 g for 10 min. […] The concentration of RebA in quench, wash, and cell extract was quantified by LC-MS (FIG. 2), in which the error bars indicate the standard error of mean from 2 parallel experiments.

SMILES	degradation by the gut microbiome ([1]; Gardana et al., 2003)	assimilation of RebA from the culture medium [2]	concentration of RebA in the cell extract versus quench and wash solutions ([3]; 9 g/L RebA as only carbon source, 72 h, LC-MS, FIG. 2, 2 parallel experiments)	concentration of RebA in the wash solution versus quench solution ([3]; LC-MS, FIG. 2)	intracellular accumulation of RebA ([3]; conclusion from cell extract versus quench and wash concentrations)	degradation by the gut microbiome [1]
C=C1C[C@@]23CC[C@H]4[C@@](C)(CCC[C@@]4(C)C(=O)O)[C@@H]2CC[C@]1(O)C3 [steviol]	not metabolized further					
C=C1C[C@@]23CC[C@H]4[C@@](C)(CCC[C@@]4(C)C(=O)O[C@@H]4O[C@H](CO)[C@@H](O)[C@H](O)[C@H]4O)[C@@H]2CC[C@]1(O[C@@H]1O[C@H](CO)[C@@H](O)[C@H](O[C@@H]2O[C@H](CO)[C@@H](O)[C@H](O)[C@H]2O)[C@H]1O[C@@H]1O[C@H](CO)[C@@H](O)[C@H](O)[C@H]1O)C3 [RebA, Rebaudioside A]		found to assimilate RebA	exceeds that in the quench and wash solutions	higher than in the quench solution	accumulated intracellularly	glucose residues are cleaved off
